Patent publication US20120270929A1, “MODULATION OF TTC39 EXPRESSION TO INCREASE HDL” (ISIS Pharmaceuticals, Inc., priority 2009, published 2012)
Oligonucleotides are written 5' to 3', each unit as a sugar letter and its base; * is a phosphorothioate linkage, no mark a phosphodiester; rarer units and linkages stand in square brackets, end groups in braces. Plain capitals give the bases only. e = 2'-O-(2-methoxyethyl) (MOE); [5mC] = 5-methylcytosine; d = 2'-deoxy (DNA)

Test system: murine TTC39B mRNA
Test: Antisense inhibition of murine TTC39B in mouse primary hepatocytes, single dose
Type: cell-based
Settings: 100 nM, cytofectin, ~24 h, vs untreated control; gapmers targeted to SEQ ID NO: 6
Procedure: Antisense oligonucleotides targeted to a TTC39B nucleic acid were tested for their effects on TTC39B mRNA in vitro. Cultured mouse primary hepatocytes at a density of 10,000 cells per well were transfected using cytofectin reagent with 100 nM antisense oligonucleotide. After a treatment period of approximately 24 hours, RNA was isolated from the cells and TTC39B mRNA levels were measured by quantitative real-time PCR. TTC39B mRNA levels were adjusted according to total RNA content, as measured by RIBOGREEN®. Results are presented as percent inhibition of TTC39B, relative to untreated control cells.
The chimeric antisense oligonucleotides in Tables 1 and 2 were designed as 5-10-5 MOE gapmers. The gapmers are 20 nucleotides in length, wherein the central gap segment is comprised of 10 2′-deoxynucleotides and is flanked on both sides (in the 5′ and 3′ directions) by wings comprising 5 nucleotides each. Each nucleotide in the 5′ wing segment and each nucleotide in the 3′ wing segment has a 2′-MOE modification. The internucleoside linkages throughout each gapmer are phosphorothioate (P═S) linkages. All cytosine residues throughout each gapmer are 5-methylcytosines. “Target start site” indicates the 5′-most nucleotide to which the gapmer is targeted. “Target stop site” indicates the 3′-most nucleotide to which the gapmer is targeted. Each gapmer listed in Table 1 is targeted to SEQ ID NO: 6 (GENBANK Accession No. NM_027238.2) and each gapmer listed in Table 2 is targeted to SEQ ID NO: 10 (the complement of GENBANK Accession No. NT—039260.7 truncated at nucleotides 22491001 to 22601000), SEQ ID NO: 11 (GENBANK Accession No. BY244623.1), SEQ ID NO: 12 (GENBANK Accession No. BY260936), SEQ ID NO: 13 (GENBANK Accession No. BM935568.1) or SEQ ID NO: 14 (GENBANK Accession No. BY728780.1).

| Substance | % inhibition of murine TTC39B mRNA [%] |
| --- | --- |
| AAAATATCTCTGAAGTTTAA (antisense eA*eA*eA*eA*eT*dA*dT*d[5mC]*dT*d[5mC]*dT*dG*dA*dA*dG*eT*eT*eT*eA*eA) [ISIS 447136] | 24 |
| ACAAAGTGAAAGCCGCTGGT (antisense eA*e[5mC]*eA*eA*eA*dG*dT*dG*dA*dA*dA*dG*d[5mC]*d[5mC]*dG*e[5mC]*eT*eG*eG*eT) [ISIS 447103] | 64 |
| ACAGTATCTTGAACATGACA (antisense eA*e[5mC]*eA*eG*eT*dA*dT*d[5mC]*dT*dT*dG*dA*dA*d[5mC]*dA*eT*eG*eA*e[5mC]*eA) [ISIS 447147] | 46 |
| AGATACAAGTCCCTTCTGCC (antisense eA*eG*eA*eT*eA*d[5mC]*dA*dA*dG*dT*d[5mC]*d[5mC]*d[5mC]*dT*dT*e[5mC]*eT*eG*e[5mC]*e[5mC]) [ISIS 447137] | 50 |
| AGCATCAAATTAAAGGCCCC (antisense eA*eG*e[5mC]*eA*eT*d[5mC]*dA*dA*dA*dT*dT*dA*dA*dA*dG*eG*e[5mC]*e[5mC]*e[5mC]*e[5mC]) [ISIS 447113] | 59 |
| AGGACCTTGATGGCCTTGTC (antisense eA*eG*eG*eA*e[5mC]*d[5mC]*dT*dT*dG*dA*dT*dG*dG*d[5mC]*d[5mC]*eT*eT*eG*eT*e[5mC]) [ISIS 447130] | 44 |
| AGTATGAGGGAGCCATTTGG (antisense eA*eG*eT*eA*eT*dG*dA*dG*dG*dG*dA*dG*d[5mC]*d[5mC]*dA*eT*eT*eT*eG*eG) [ISIS 447117] | 47 |
| ATCCACATTAATTCCCAGTA (antisense eA*eT*e[5mC]*e[5mC]*eA*d[5mC]*dA*dT*dT*dA*dA*dT*dT*d[5mC]*d[5mC]*e[5mC]*eA*eG*eT*eA) [ISIS 447120] | 65 |
| CAGTAAAGTCTTGATTCTGC (antisense e[5mC]*eA*eG*eT*eA*dA*dA*dG*dT*d[5mC]*dT*dT*dG*dA*dT*eT*e[5mC]*eT*eG*e[5mC]) [ISIS 447126] | 58 |
| CATCATTTCCAGGGCTGGCA (antisense e[5mC]*eA*eT*e[5mC]*eA*dT*dT*dT*d[5mC]*d[5mC]*dA*dG*dG*dG*d[5mC]*eT*eG*eG*e[5mC]*eA) [ISIS 447125] | 54 |
| CCAGACAGACACTCAGACCA (antisense e[5mC]*e[5mC]*eA*eG*eA*d[5mC]*dA*dG*dA*d[5mC]*dA*d[5mC]*dT*d[5mC]*dA*eG*eA*e[5mC]*e[5mC]*eA) [ISIS 447149] | 48 |
| CCCCGTTCCAAGCTTGACTC (antisense e[5mC]*e[5mC]*e[5mC]*e[5mC]*eG*dT*dT*d[5mC]*d[5mC]*dA*dA*dG*d[5mC]*dT*dT*eG*eA*e[5mC]*eT*e[5mC]) [ISIS 447112] | 62 |
| CCGCACACCCACAGGGAACT (antisense e[5mC]*e[5mC]*eG*e[5mC]*eA*d[5mC]*dA*d[5mC]*d[5mC]*d[5mC]*dA*d[5mC]*dA*dG*dG*eG*eA*eA*e[5mC]*eT) [ISIS 447099] | 56 |
| CCTGATAAATCACAAATGCT (antisense e[5mC]*e[5mC]*eT*eG*eA*dT*dA*dA*dA*dT*d[5mC]*dA*d[5mC]*dA*dA*eA*eT*eG*e[5mC]*eT) [ISIS 447150] | 46 |
| CGTGTCATTTATTAAATAAC (antisense e[5mC]*eG*eT*eG*eT*d[5mC]*dA*dT*dT*dT*dA*dT*dT*dA*dA*eA*eT*eA*eA*e[5mC]) [ISIS 447154] | 22 |
| CTTTATTGTACCTGCCAGTC (antisense e[5mC]*eT*eT*eT*eA*dT*dT*dG*dT*dA*d[5mC]*d[5mC]*dT*dG*d[5mC]*e[5mC]*eA*eG*eT*e[5mC]) [ISIS 447134] | 53 |
| GACAGCCTGCAACACCACAA (antisense eG*eA*e[5mC]*eA*eG*d[5mC]*d[5mC]*dT*dG*d[5mC]*dA*dA*d[5mC]*dA*d[5mC]*e[5mC]*eA*e[5mC]*eA*eA) [ISIS 447105] | 52 |
| GACTTTGAGATGGCACACAA (antisense eG*eA*e[5mC]*eT*eT*dT*dG*dA*dG*dA*dT*dG*dG*d[5mC]*dA*e[5mC]*eA*e[5mC]*eA*eA) [ISIS 447152] | 60 |
| GACTTTTAATTCAAAGTCCT (antisense eG*eA*e[5mC]*eT*eT*dT*dT*dA*dA*dT*dT*d[5mC]*dA*dA*dA*eG*eT*e[5mC]*e[5mC]*eT) [ISIS 447153] | 58 |
| GAGTACATTCAAATACAGGA (antisense eG*eA*eG*eT*eA*d[5mC]*dA*dT*dT*d[5mC]*dA*dA*dA*dT*dA*e[5mC]*eA*eG*eG*eA) [ISIS 447139] | 58 |
| GCAGCCATGGCCCTGGGTCA (antisense eG*e[5mC]*eA*eG*e[5mC]*d[5mC]*dA*dT*dG*dG*d[5mC]*d[5mC]*d[5mC]*dT*dG*eG*eG*eT*e[5mC]*eA) [ISIS 447141] | 40 |
| GCAGCTTTCAAGAACACATA (antisense eG*e[5mC]*eA*eG*e[5mC]*dT*dT*dT*d[5mC]*dA*dA*dG*dA*dA*d[5mC]*eA*e[5mC]*eA*eT*eA) [ISIS 447123] | 47 |

Same assay, conditions: 100 nM, cytofectin, ~24 h, vs untreated control; gapmers targeted to SEQ ID NO: 10-14

| Substance | % inhibition of murine TTC39B mRNA [%] |
| --- | --- |
| AAAGAGGAGTCCTTCCTTAA (antisense eA*eA*eA*eG*eA*dG*dG*dA*dG*dT*d[5mC]*d[5mC]*dT*dT*d[5mC]*e[5mC]*eT*eT*eA*eA) [ISIS 447160] | 63 |
| ACTCAGTCATACTTTTGGCA (antisense eA*e[5mC]*eT*e[5mC]*eA*dG*dT*d[5mC]*dA*dT*dA*d[5mC]*dT*dT*dT*eT*eG*eG*e[5mC]*eA) [ISIS 447168] | 35 |
| AGCCTTGTTCACTGGGAAGA (antisense eA*eG*e[5mC]*e[5mC]*eT*dT*dG*dT*dT*d[5mC]*dA*d[5mC]*dT*dG*dG*eG*eA*eA*eG*eA) [ISIS 447162] | 59 |
| ATCATATTTTCATCCTGAAA (antisense eA*eT*e[5mC]*eA*eT*dA*dT*dT*dT*dT*d[5mC]*dA*dT*d[5mC]*d[5mC]*eT*eG*eA*eA*eA) [ISIS 447170] | 35 |
| CCTTACCAAATTAAAGGCCC (antisense e[5mC]*e[5mC]*eT*eT*eA*d[5mC]*d[5mC]*dA*dA*dA*dT*dT*dA*dA*dA*eG*eG*e[5mC]*e[5mC]*e[5mC]) [ISIS 447171] | 23 |
| CGGAGATCAGTTTCTTCACT (antisense e[5mC]*eG*eG*eA*eG*dA*dT*d[5mC]*dA*dG*dT*dT*dT*d[5mC]*dT*eT*e[5mC]*eA*e[5mC]*eT) [ISIS 447165] | 50 |
| CTGATGAACTTGATTTAGCC (antisense e[5mC]*eT*eG*eA*eT*dG*dA*dA*d[5mC]*dT*dT*dG*dA*dT*dT*eT*eA*eG*e[5mC]*e[5mC]) [ISIS 447166] | 0 |
| GAATTATTTATTCTCACACC (antisense eG*eA*eA*eT*eT*dA*dT*dT*dT*dA*dT*dT*d[5mC]*dT*d[5mC]*eA*e[5mC]*eA*e[5mC]*e[5mC]) [ISIS 447167] | 56 |

Test system: murine TTC39C mRNA
Test: Dose-dependent antisense inhibition of murine TTC39C in mouse primary hepatocytes
Type: cell-based
Settings: 500.0 nM, electroporation, ~16 h
Procedure: Thirty antisense oligonucleotides were selected from the study described in Example 8 and further tested at various doses in mouse primary hepatocytes. Cells were plated at a density of 30,000 cells per well and transfected using electroporation with 500 nM, 1,000 nM, 2,000 nM, 4,000 nM, and 8,000 nM concentrations of antisense oligonucleotide, as specified in Table 30. After a treatment period of approximately 16 hours, RNA was isolated from the cells and TTC39C mRNA levels were measured by quantitative real-time PCR. Murine primer probe set RTS3266 was used to measure mRNA levels. TTC39C mRNA levels were adjusted according to total RNA content, as measured by RIBOGREEN®. Results are presented as percent inhibition of TTC39C, relative to untreated control cells.

| Substance | percent inhibition of TTC39C mRNA [%] |
| --- | --- |
| ISIS 474654: 5-10-5 MOE gapmer antisense oligonucleotide targeting murine TTC39C (antisense eT*e[5mC]*eA*eG*e[5mC]*dT*dA*d[5mC]*dA*dG*dA*dA*d[5mC]*dG*d[5mC]*eA*eG*eG*eG*eT) | 11 |

Same assay, conditions: 1000.0 nM, electroporation, ~16 h

| Substance | percent inhibition of TTC39C mRNA [%] |
| --- | --- |
| ISIS 474654: 5-10-5 MOE gapmer antisense oligonucleotide targeting murine TTC39C (antisense eT*e[5mC]*eA*eG*e[5mC]*dT*dA*d[5mC]*dA*dG*dA*dA*d[5mC]*dG*d[5mC]*eA*eG*eG*eG*eT) | 14 |

Same assay, conditions: 2000.0 nM, electroporation, ~16 h

| Substance | percent inhibition of TTC39C mRNA [%] |
| --- | --- |
| ISIS 474654: 5-10-5 MOE gapmer antisense oligonucleotide targeting murine TTC39C (antisense eT*e[5mC]*eA*eG*e[5mC]*dT*dA*d[5mC]*dA*dG*dA*dA*d[5mC]*dG*d[5mC]*eA*eG*eG*eG*eT) | 38 |

Same assay, conditions: 4000.0 nM, electroporation, ~16 h

| Substance | percent inhibition of TTC39C mRNA [%] |
| --- | --- |
| ISIS 474654: 5-10-5 MOE gapmer antisense oligonucleotide targeting murine TTC39C (antisense eT*e[5mC]*eA*eG*e[5mC]*dT*dA*d[5mC]*dA*dG*dA*dA*d[5mC]*dG*d[5mC]*eA*eG*eG*eG*eT) | 60 |

Same assay, conditions: 8000.0 nM, electroporation, ~16 h

| Substance | percent inhibition of TTC39C mRNA [%] |
| --- | --- |
| ISIS 474654: 5-10-5 MOE gapmer antisense oligonucleotide targeting murine TTC39C (antisense eT*e[5mC]*eA*eG*e[5mC]*dT*dA*d[5mC]*dA*dG*dA*dA*d[5mC]*dG*d[5mC]*eA*eG*eG*eG*eT) | 74 |

Same assay, conditions: mouse primary hepatocytes, electroporation, ~16 h

| Substance | IC50 [µM] |
| --- | --- |
| ISIS 474654: 5-10-5 MOE gapmer antisense oligonucleotide targeting murine TTC39C (antisense eT*e[5mC]*eA*eG*e[5mC]*dT*dA*d[5mC]*dA*dG*dA*dA*d[5mC]*dG*d[5mC]*eA*eG*eG*eG*eT) | 3.1 |
